In ChEMBL document CHEMBL4613328, “Dual Targeting of Norepinephrine Transporter (NET) Function and Thyrointegrin αvβ3 Receptors in the Treatment of Neuroblastoma” (J Med Chem, 2020):
Activity calls are given as the source filed them. The calls are words filed in the database; no cut-off is given here.

How the values were obtained:
SK-N-FI [1] = experiment: Antitumor activity against human SK-N-FI cells xenografted in Ncr nude mouse assessed as inhibition of tumor growth by measuring suppression of tumor weight at 3 mg/kg, sc dosed daily for 15 days relative to control; format: functional; conditions: for inhibition in vivo at 3 mg/kg: 360 h, read-out: TGI
[2] = Drug uptake in human SK-N-FI cells using Cy7-labeled compound incubated for 4 hrs by confocal microscopy; format: ADME, cell-based
SK-N-FI [3] = experiment: Antitumor activity against human SK-N-FI cells xenografted in Ncr nude mouse assessed as inhibition of neuroblastoma tumor cell viability at 1 to 10 mg/kg, sc dosed daily for 15 days relative to control; format: functional
Integrin alpha-V/beta-3 [4] = target: T1, Integrin alpha-V/beta-3 (Homo sapiens, UniProt P05106+P06756); experiment: Binding affinity to […] integrin alphaVbeta3 in human SK-N-FI cells using Cy7-labeled compound incubated for 4 hrs by confocal microscopy; format: cell-based
SK-N-FI [5] = experiment: Inhibition of cell proliferation of human SK-N-FI cells at 30 to 100 uM incubated for 24 hrs relative to control; format: functional
SK-N-FI [6] = experiment: Antitumor activity against human SK-N-FI cells xenografted in Ncr nude mouse assessed as increase in neuroblastoma tumor apoptosis and necrosis at 1 to 10 mg/kg, sc dosed daily for 15 days relative to control; format: functional
SK-N-FI [7] = experiment: Antitumor activity against human SK-N-FI cells xenografted in Ncr nude mouse assessed as inhibition of tumor growth at 1 to 10 mg/kg, sc dosed daily up to 15 days relative to control; format: functional
[8] = Drug uptake in nucleus of human SK-N-FI cells using Cy7-labeled compound incubated for 4 hrs by confocal microscopy; format: ADME, subcellular
SK-N-FI [9] = experiment: Inhibition of cell proliferation of human SK-N-FI cells at 30 to 100 uM incubated for 48 hrs relative to control; format: functional
Integrin alpha-V/beta-3 [10] = target: T1, Integrin alpha-V/beta-3; experiment: Binding affinity to purified integrin alphaVbeta3 receptor (unknown origin) incubated for 2 hrs; format: protein-complex assay
Target sequence in this assay (P05106 27-788 limits assumed): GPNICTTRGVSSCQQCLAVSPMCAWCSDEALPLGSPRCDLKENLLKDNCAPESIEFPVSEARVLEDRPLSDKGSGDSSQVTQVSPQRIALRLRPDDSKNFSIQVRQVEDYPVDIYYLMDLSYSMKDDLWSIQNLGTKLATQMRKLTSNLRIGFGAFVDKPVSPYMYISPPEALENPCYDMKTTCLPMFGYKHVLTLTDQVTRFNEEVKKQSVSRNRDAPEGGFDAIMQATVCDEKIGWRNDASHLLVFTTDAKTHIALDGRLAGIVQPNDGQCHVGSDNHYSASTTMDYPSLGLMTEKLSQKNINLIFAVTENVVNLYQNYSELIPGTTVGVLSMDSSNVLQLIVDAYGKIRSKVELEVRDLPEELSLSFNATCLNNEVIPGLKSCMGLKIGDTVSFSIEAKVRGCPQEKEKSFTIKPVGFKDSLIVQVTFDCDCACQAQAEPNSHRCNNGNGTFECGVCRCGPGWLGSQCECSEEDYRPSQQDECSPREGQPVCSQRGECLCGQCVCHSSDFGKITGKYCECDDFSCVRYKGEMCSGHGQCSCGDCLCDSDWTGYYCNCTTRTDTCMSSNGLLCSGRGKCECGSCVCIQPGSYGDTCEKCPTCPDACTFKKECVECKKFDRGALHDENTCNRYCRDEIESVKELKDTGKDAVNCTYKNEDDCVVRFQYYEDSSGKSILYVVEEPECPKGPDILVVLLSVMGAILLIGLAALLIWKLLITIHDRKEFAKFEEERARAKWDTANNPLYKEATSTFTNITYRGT
Target sequence in this assay (P06756 31-889 limits assumed): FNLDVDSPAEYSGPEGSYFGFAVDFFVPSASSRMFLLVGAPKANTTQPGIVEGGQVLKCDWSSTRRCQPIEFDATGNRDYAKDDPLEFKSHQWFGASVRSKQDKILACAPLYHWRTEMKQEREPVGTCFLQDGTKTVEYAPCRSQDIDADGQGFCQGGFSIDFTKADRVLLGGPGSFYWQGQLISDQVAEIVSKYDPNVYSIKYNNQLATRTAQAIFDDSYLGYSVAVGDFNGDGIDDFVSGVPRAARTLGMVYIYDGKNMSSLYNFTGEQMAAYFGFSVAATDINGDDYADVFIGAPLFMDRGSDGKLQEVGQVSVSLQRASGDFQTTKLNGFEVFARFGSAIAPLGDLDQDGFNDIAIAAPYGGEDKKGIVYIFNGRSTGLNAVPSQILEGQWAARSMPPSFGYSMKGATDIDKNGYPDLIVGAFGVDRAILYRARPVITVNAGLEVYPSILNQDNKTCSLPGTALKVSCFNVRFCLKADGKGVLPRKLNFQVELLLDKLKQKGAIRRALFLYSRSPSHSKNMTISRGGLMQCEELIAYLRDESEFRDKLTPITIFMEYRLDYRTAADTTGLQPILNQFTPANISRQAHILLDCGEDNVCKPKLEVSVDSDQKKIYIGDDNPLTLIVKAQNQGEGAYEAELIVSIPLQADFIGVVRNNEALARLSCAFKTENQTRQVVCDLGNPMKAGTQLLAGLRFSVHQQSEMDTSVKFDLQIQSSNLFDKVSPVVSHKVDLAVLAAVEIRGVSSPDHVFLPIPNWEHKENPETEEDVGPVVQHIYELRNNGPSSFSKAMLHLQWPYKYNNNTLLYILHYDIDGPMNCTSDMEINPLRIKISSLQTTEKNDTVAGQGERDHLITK
Target sequence in this assay (P06756 891-1048 limits assumed): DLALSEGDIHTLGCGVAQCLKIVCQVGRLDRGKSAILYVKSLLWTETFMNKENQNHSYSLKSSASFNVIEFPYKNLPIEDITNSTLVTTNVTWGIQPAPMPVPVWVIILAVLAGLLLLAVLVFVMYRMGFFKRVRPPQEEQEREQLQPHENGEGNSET

Drug uptake [2] | Activity (Integrin alpha-V/beta-3 [4]) | Drug uptake [8] | IC50 (Integrin alpha-V/beta-3 [10]) | Compound | TGI (SK-N-FI [1]) | inhibition (INH) (SK-N-FI [3]) | inhibition (INH) (SK-N-FI [5]) | Activity (SK-N-FI [6]) | TGI (SK-N-FI [7]) | inhibition in vivo at 3 mg/kg (SK-N-FI [1]) | inhibition (INH) (SK-N-FI [9])
90 to 100% |  |  |  | N=C(N)NCc1ccccc1 | inactive |  |  |  |  |  | 
 | Active | Not Active |  | N=C(N)NCc1ccc(OCCOCCOCCOCCOCCOCCOCCn2cc(COc3c(I)cc(Oc4c(I)cc(CC(=O)O)cc4I)cc3I)nn2)cc1 |  | 80 - 100% | 30% | 80 - 100% | 80 - 100% | 80 to 100% | 50 - 60%
 |  | Active | 62.4 nM | O=C(O)Cc1cc(I)c(Oc2cc(I)c(O)c(I)c2)c(I)c1 [TETRAC] |  |  |  |  |  | 40 to 50% | 
